Source: ChEMBL document CHEMBL4665709, “Rational Avoidance of Protease Cleavage Sites and Symmetrical End-Tagging Significantly Enhances the Stability and Therapeutic Potential of Antimicrobial Peptides” (J Med Chem, 2020)
Converted amounts (≈) assume the structure as drawn. Where a SMILES comes first, the peptide text is derived from it.

Experiments:
[1] = Therapeutic index, ratio of MHC for human RBC to geometric mean of peptide MIC for Escherichia coli UB1005; format: toxicity; settings: human red blood cells (RBC), read-out: TI
[2] = Therapeutic index, ratio of MHC for human RBC to geometric mean of peptide MIC for Salmonella choleraesuis 503; format: toxicity; settings: human red blood cells (RBC), read-out: TI
Streptococcus agalactiae = assay: Antibacterial activity against Streptococcus agalactiae H92 after 18 to 24 hrs by CLSI-based broth microdilution method; format: functional; settings: time hrs 18-24
[3] = Antibacterial activity against Salmonella pullorum 7913 after 18 to 24 hrs by CLSI-based broth microdilution method; format: functional, Salmonella enterica subsp. enterica serovar Pullorum; settings: Salmonella enterica, time hrs 18-24
[4] = Therapeutic index, ratio of MHC for human RBC to geometric mean of peptide MIC for methicillin-resistant Staphylococcus aureus 43300; format: toxicity; settings: human red blood cells (RBC), read-out: TI
[5] = Cytotoxicity against mouse RAW264.7 cells assessed as cell viability at 128 uM by MTT assay relative to control; format: cell-based; settings: read-out: Activity
Salmonella typhimurium [6] = assay: Antibacterial activity against Salmonella typhimurium 7731 after 18 to 24 hrs by CLSI-based broth microdilution method; format: functional, Salmonella enterica subsp. enterica serovar Typhimurium; settings: Salmonella enterica, time hrs 18-24
Enterococcus faecalis = assay: Antibacterial activity against Enterococcus faecalis ATCC 29212 after 18 to 24 hrs by CLSI-based broth microdilution method; format: functional; settings: time hrs 18-24
Escherichia coli [7] = assay: Antibacterial activity against Escherichia coli ATCC 25922 after 18 to 24 hrs by CLSI-based broth microdilution method; format: functional; settings: time hrs 18-24
[8] = tested on: Staphylococcus epidermidis; assay: Antibacterial activity against Staphylococcus epidermidis ATCC 12228 after 18 to 24 hrs by CLSI-based broth microdilution method; format: functional; settings: time hrs 18-24
[9] = Therapeutic index, ratio of MHC for human RBC to geometric mean of peptide MIC for Salmonella pullorum 7913; format: toxicity; settings: human red blood cells (RBC), read-out: TI
Staphylococcus aureus [10] = assay: Antibacterial activity against methicillin-resistant Staphylococcus aureus 43300 after 18 to 24 hrs by CLSI-based broth microdilution method; format: functional; settings: time hrs 18-24
Salmonella enterica = assay: Antibacterial activity against Salmonella choleraesuis 503 after 18 to 24 hrs by CLSI-based broth microdilution method; format: functional; settings: time hrs 18-24
[11] = Therapeutic index, ratio of MHC for human RBC to geometric mean of peptide MIC for Salmonella typhimurium 7731; format: toxicity; settings: human red blood cells (RBC), read-out: TI
[12] = Therapeutic index, ratio of MHC for human RBC to geometric mean of peptide MIC for Salmonella typhimurium 14028; format: toxicity; settings: human red blood cells (RBC), read-out: TI
[13] = Therapeutic index, ratio of MHC for human RBC to geometric mean of peptide MIC for Escherichia coli ATCC 25922; format: toxicity; settings: human red blood cells (RBC), read-out: TI
[14] = Therapeutic index, ratio of MHC for human RBC to geometric mean of peptide MIC for Staphylococcus aureus ATCC 29213; format: toxicity; settings: human red blood cells (RBC), read-out: TI
[15] = Therapeutic index, ratio of MHC for human RBC to geometric mean of peptide MIC for Streptococcus agalactiae H92; format: toxicity; settings: human red blood cells (RBC), read-out: TI
Staphylococcus aureus [16] = assay: Antibacterial activity against Staphylococcus aureus 11011 after 18 to 24 hrs by CLSI-based broth microdilution method; format: functional; settings: time hrs 18-24
[17] = Hemolytic activity in human RBC assessed as hemolysis at 1 to 128 uM relative to control; format: ADME, cell-based, Erythrocyte; settings: human red blood cells (RBC), dose 1-128 µM, read-out: Activity
Salmonella typhimurium [18] = assay: Antibacterial activity against Salmonella typhimurium 14028 after 18 to 24 hrs by CLSI-based broth microdilution method; format: functional, Salmonella enterica subsp. enterica serovar Typhimurium; settings: Salmonella enterica, time hrs 18-24
[19] = Therapeutic index, ratio of MHC for human RBC to geometric mean of peptide MIC for Staphylococcus aureus 11011; format: toxicity; settings: human red blood cells (RBC), read-out: TI
Erythrocyte = assay: Hemolytic activity in human RBC assessed as hemolysis; format: ADME, cell-based
Staphylococcus aureus [20] = assay: Antibacterial activity against Staphylococcus aureus ATCC 29213 after 18 to 24 hrs by CLSI-based broth microdilution method; format: functional; settings: time hrs 18-24
Escherichia coli [21] = assay: Antibacterial activity against Escherichia coli UB1005 after 18 to 24 hrs by CLSI-based broth microdilution method; format: functional; settings: time hrs 18-24
[22] = Cytotoxicity against HEK-293T cells assessed as cell viability at 128 uM by MTT assay relative to control; format: cell-based; settings: human, read-out: Activity
[23] = Therapeutic index, ratio of MHC for human RBC to geometric mean of peptide MIC for Staphylococcus epidermidis ATCC 12228; format: toxicity; settings: human red blood cells (RBC), read-out: TI
[24] = Therapeutic index, ratio of MHC for human RBC to geometric mean of peptide MIC for Enterococcus faecalis ATCC 29212; format: toxicity; settings: human red blood cells (RBC), read-out: TI

Row | Compound | selectivity ratio [1] | selectivity ratio [2] | MIC (Streptococcus agalactiae) | MIC [3] | selectivity ratio [4] | viability at 128 µM [5] | MIC (Salmonella typhimurium [6]) | MIC (Enterococcus faecalis) | MIC (Escherichia coli [7]) | MIC [8] | selectivity ratio [9] | MIC (Staphylococcus aureus [10]) | MIC (Salmonella enterica) | selectivity ratio [11] | selectivity ratio [12] | selectivity ratio [13] | selectivity ratio [14] | selectivity ratio [15] | MIC (Staphylococcus aureus [16]) | hemolysis at up to 128 µM [17] | also measured
1 | CC[C@H](C)[C@H](N)C(=O)N[C@H](C(=O)N[C@H](C(=O)N[C@@H](CS)C(=O)N[C@@H](CCCNC(=N)N)C(=O)N[C@@H](CCCCN)C(=O)N1CCC[C@H]1C(=O)N[C@H](C(=O)N[C@H](C(=O)N[C@@H](CS)C(=O)N[C@@H](CCCNC(=N)N)C(=O)N[C@@H](CCCCN)C(=O)N1CCC[C@H]1C(=O)N[C@H](C(=O)N[C@H](C(=O)N[C@@H](CS)C(=O)N[C@@H](CCCNC(=N)N)C(=O)N[C@@H](CCCCN)C(=O)N1CCC[C@H]1C(=O)N[C@H](C(=O)N[C@H](C(=O)N[C@@H](CS)C(=O)N[C@@H](CCCNC(=N)N)C(=O)N[C@@H](CCCCN)C(=O)N1CCC[C@H]1C(=O)N[C@H](C(=O)N[C@H](C(=O)N[C@@H](CS)C(=O)N[C@@H](CCCNC(=N)N)C(=O)N[C@@H](CCCCN)C(=O)N1CCC[C@H]1C(=O)N[C@H](C(=O)N[C@H](C(=O)N[C@H](C(N)=O)[C@@H](C)CC)[C@@H](C)CC)[C@@H](C)CC)[C@@H](C)CC)[C@@H](C)CC)[C@@H](C)CC)[C@@H](C)CC)[C@@H](C)CC)[C@@H](C)CC)[C@@H](C)CC)[C@@H](C)CC)[C@@H](C)CC)[C@@H](C)CC (H-IIICRKPIICRKPIICRKPIICRKPIICRKPIII-NH2) | 32 | 32 | > 64 µM | 8 µM (≈ 32.2 µg/mL) | 2 | > 90% | 4 µM (≈ 16.1 µg/mL) | > 64 µM | 4 µM (≈ 16.1 µg/mL) | > 64 µM | 32 | > 64 µM | 4 µM (≈ 16.1 µg/mL) | 32 | 32 | 32 | 2 | 2 | > 64 µM | < 5% | MIC (Salmonella typhimurium [18]): 4 µM (≈ 16.1 µg/mL); selectivity ratio [19]: 2; MHC (Erythrocyte): > 128 µM; MIC (Staphylococcus aureus [20]): > 64 µM; MIC (Escherichia coli [21]): 2 µM (≈ 8.05 µg/mL); viability at 128 µM [22]: > 90%; selectivity ratio [23]: 2; selectivity ratio [24]: 2
2 | CC[C@H](C)[C@H](N)C(=O)N[C@@H](CS)C(=O)N[C@@H](CCCNC(=N)N)C(=O)N[C@@H](CCCCN)C(=O)N1CCC[C@H]1C(=O)N[C@H](C(=O)N[C@H](C(=O)N[C@@H](CS)C(=O)N[C@@H](CCCNC(=N)N)C(=O)N[C@@H](CCCCN)C(=O)N1CCC[C@H]1C(=O)N[C@H](C(N)=O)[C@@H](C)CC)[C@@H](C)CC)[C@@H](C)CC (H-ICRKPIICRKPI-NH2) | 2 | 2 | > 64 µM | > 64 µM | 2 | > 90% | > 64 µM | > 64 µM | 64 µM (≈ 92.1 µg/mL) | > 64 µM | 2 | > 64 µM | > 64 µM | 2 | 2 | 2 | 2 | 2 | > 64 µM | < 5% | MIC (Salmonella typhimurium [18]): > 64 µM; selectivity ratio [19]: 2; MHC (Erythrocyte): > 128 µM; MIC (Staphylococcus aureus [20]): > 64 µM; MIC (Escherichia coli [21]): > 64 µM; viability at 128 µM [22]: > 90%; selectivity ratio [23]: 2; selectivity ratio [24]: 2
